Measured values: BindingDB's records for doi:10.1021/jm1009814 (Paris-Sud University, 2010)

Columns and labels:
[1] = target: T1, Fructose-bisphosphate aldolase (Helicobacter pylori (strain ATCC 700392 / 26695), UniProt P56109); assay: Inhibition of Helicobacter pylori recombinant zinc dependent class 2 Fba expressed in Escherichia coli JM109
T1 sequence (P56109 whole entry): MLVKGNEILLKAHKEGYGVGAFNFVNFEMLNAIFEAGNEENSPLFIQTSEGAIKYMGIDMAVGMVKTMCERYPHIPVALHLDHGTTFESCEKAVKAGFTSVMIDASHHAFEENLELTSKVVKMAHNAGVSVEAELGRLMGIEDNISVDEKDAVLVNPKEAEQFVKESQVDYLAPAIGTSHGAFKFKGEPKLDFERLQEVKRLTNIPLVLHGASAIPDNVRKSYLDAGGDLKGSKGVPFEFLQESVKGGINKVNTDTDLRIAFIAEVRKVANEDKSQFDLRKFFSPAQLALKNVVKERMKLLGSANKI

[2] = target: T2, Fructose-bisphosphate aldolase (Candida albicans (strain SC5314 / ATCC MYA-2876), UniProt Q9URB4); assay: Inhibition of Candida albicans zinc dependent class 2 Fba
T2 sequence (Q9URB4 whole entry): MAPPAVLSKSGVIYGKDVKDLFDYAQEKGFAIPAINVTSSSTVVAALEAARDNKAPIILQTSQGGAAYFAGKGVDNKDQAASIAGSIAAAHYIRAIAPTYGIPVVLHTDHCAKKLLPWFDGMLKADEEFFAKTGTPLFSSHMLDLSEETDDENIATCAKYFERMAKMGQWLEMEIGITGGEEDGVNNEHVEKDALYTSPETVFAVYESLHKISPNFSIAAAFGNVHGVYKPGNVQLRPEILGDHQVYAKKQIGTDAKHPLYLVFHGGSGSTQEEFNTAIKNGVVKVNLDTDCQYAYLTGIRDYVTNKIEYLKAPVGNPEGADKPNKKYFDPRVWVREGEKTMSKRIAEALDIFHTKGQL

[3] = target: T3, Fructose-bisphosphate aldolase A (Oryctolagus cuniculus, UniProt P00883); assay: Inhibition of rabbit muscle […] class 1 Fba expressed in Escherichia coli
T3 sequence (P00883 whole entry): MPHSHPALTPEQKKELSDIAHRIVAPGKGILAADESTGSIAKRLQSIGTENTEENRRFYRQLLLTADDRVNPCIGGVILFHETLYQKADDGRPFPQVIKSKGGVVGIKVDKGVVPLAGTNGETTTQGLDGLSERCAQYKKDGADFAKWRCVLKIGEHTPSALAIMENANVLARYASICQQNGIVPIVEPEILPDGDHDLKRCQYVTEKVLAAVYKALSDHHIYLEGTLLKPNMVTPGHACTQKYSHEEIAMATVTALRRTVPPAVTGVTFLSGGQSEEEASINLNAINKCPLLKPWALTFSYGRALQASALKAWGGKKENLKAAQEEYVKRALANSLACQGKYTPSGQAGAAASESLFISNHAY

SMILES | Ki [1] [µM] | Ki [2] [µM] | Ki [3] [µM]
O=C([C@H](O)COP(=O)(O)O)[C@H](O)C(O)COP(=O)(O)O (stereo partly drawn) [1,6-di-O-phosphono-D-fructose] | 17 | 85 | 15
CCCCCC(=O)OCCCCN(O)C(=O)COP(=O)(O)O [4-(N-hydroxy-2-(phosphonooxy)acetamido)butyl hexanoate] |  |  | 850
